Results as given in patent publication EP4789670A1, “PREPARATION CONTAINING URACIL DERIVATIVE” (Shionogi & Co., Ltd, priority 2023, dated 2025).
Values after ≈ are worked out from the molar mass of the structure shown.

Assays:
physchem = assay type: physicochemical
Experimental: The solid dispersion obtained in Example 4D and the anhydrous crystal alone of the compound represented by Formula (I) (Example 4F-1) were added to various test media to prepare suspensions of 30 to 50 mL. The prepared suspensions were placed in centrifuge tubes and shaken at a shaking speed of 100 rpm or higher. After 60 minutes from the start of shaking, 5 mL of each suspension was collected and immediately filtered through a filter (Chromadisc, 0.45 µm, 25A) to obtain test samples.

SARS-CoV-2 = assay: Cytopathic effect (CPE) suppression effect confirmation test using HEK293T/ACE2-TMPRSS2 cells; assay type: cell-based; settings: Severe acute respiratory syndrome coronavirus 2, HEK-293T, 72 h, SARS-CoV-2 200-600 TCID50/well, cultured 3 days, CellTiter-Glo 2.0, read-out: 50% SARS-CoV-2 infected cell death inhibitory concentration (EC50)
Experimental: Test Example 1: Cytopathic Effect (CPE) Suppression Effect Confirmation Test Using HEK293T Cells Expressing Human TMPRSS2, ACE2 (HEK293T/ACE2-TMPRSS2 Cells)
The sample to be tested is diluted in advance to an appropriate concentration with DMSO, and a 2- to 5-fold series of serial dilutions is prepared and then dispensed into a 384-well plate.
HEK293T/ACE2-TMPRSS2 cells (GCP-SL222, 5×10^3 cells/well) and SARS-CoV-2 (200-600 TCID50/well) are mixed in a medium (MEM, 2% FBS, penicillin-streptomycin), the mixture is dispensed into the wells in which the sample to be tested has been introduced, and then the cells are cultured for 3 days in a CO2 incubator.
The plate that has been cultured for 3 days is returned to room temperature, subsequently CellTiter-Glo (registered trademark) 2.0 is dispensed into each well, and the plate is mixed using a plate mixer. After standing for a predetermined period of time, the luminescence signal (Lum) is measured using a plate reader.

N#CCn1c(N2CC3(C2)CC(F)(F)C3)c(-c2ccc(F)c(Cl)c2)c(=O)n(-c2cncc(Cl)c2)c1=O [Example 4F-1]
solubility at 1 h (physchem; diluted mcilvaine buffer, pH 4): 0.64 µg/mL (≈ 1.23 µM) | solubility at 1 h (physchem; jp first dissolution test medium, pH 1.2): 1.08 µg/mL (≈ 2.07 µM) | solubility at 1 h (physchem; jp second dissolution test medium, pH 6.8): 0.61 µg/mL (≈ 1.17 µM) | solubility at 1 h (physchem; purified water): 0.71 µg/mL (≈ 1.36 µM)

N#CCn1c(N2CC3(C2)CC(F)(F)C3)c(-c2ccc(F)c(Cl)c2)c(=O)n(-c2cncc(Cl)c2)c1=O [Compound (I)]
EC50 (SARS-CoV-2): 1.66 nM
